How the values were obtained:
NCI-H522 [1] = assay: Growth inhibition of human NCI-H522 cells assessed as cell growth at 10 uM incubated for 48 hrs by sulforhodamine B assay relative to control; format: functional; settings: NCI-H522, 48 h, read-out: Activity
HT-29 [2] = assay: Growth inhibition of human HT-29 cells assessed as cell growth at 10 uM incubated for 48 hrs by sulforhodamine B assay relative to control; format: functional; settings: HT-29, 48 h, read-out: Activity
SK-MEL-2 = assay: Growth inhibition of human SK-MEL-2 cells assessed as cell growth at 10 uM incubated for 48 hrs by sulforhodamine B assay relative to control; format: functional; settings: SK-MEL-2, 48 h, read-out: Activity
NCI-H226 = assay: Growth inhibition of human NCI-H226 cells incubated for 48 hrs by sulforhodamine B assay; format: functional, cell-based; settings: NCI-H226, 48 h
SW-620 = assay: Growth inhibition of human SW620 cells incubated for 48 hrs by sulforhodamine B assay; format: functional, cell-based; settings: SW-620, 48 h
CCRF-CEM [3] = assay: Growth inhibition of human CCRF-CEM cells assessed as cell growth at 0.01 uM incubated for 48 hrs by sulforhodamine B assay relative to control; format: functional; settings: read-out: Activity
SF-268 = assay: Growth inhibition of human SF268 cells assessed as cell growth at 0.01 uM incubated for 48 hrs by sulforhodamine B assay relative to control; format: functional; settings: SF-268, 48 h, read-out: Activity
SF-539 = assay: Growth inhibition of human SF539 cells assessed as cell growth at 0.01 uM incubated for 48 hrs by sulforhodamine B assay relative to control; format: functional; settings: SF-539, 48 h, read-out: Activity
UACC-257 = assay: Growth inhibition of human UACC257 cells assessed as cell growth at 0.01 uM incubated for 48 hrs by sulforhodamine B assay relative to control; format: functional; settings: UACC-257, 48 h, read-out: Activity
RXF 393 = assay: Growth inhibition of human RXF393 cells assessed as cell growth at 0.01 uM incubated for 48 hrs by sulforhodamine B assay relative to control; format: functional; settings: RXF 393, 48 h, read-out: Activity
PC-3 = assay: Growth inhibition of human PC3 cells assessed as cell growth at 0.01 uM incubated for 48 hrs by sulforhodamine B assay relative to control; format: functional; settings: PC-3, 48 h, read-out: Activity
MDA-MB-468 = assay: Growth inhibition of human MDA-MB-468 cells assessed as cell growth at 0.01 uM incubated for 48 hrs by sulforhodamine B assay relative to control; format: functional; settings: MDA-MB-468, 48 h, read-out: Activity
CCRF-CEM [4] = assay: Growth inhibition of human CCRF-CEM cells assessed as cell growth at 0.1 uM incubated for 48 hrs by sulforhodamine B assay relative to control; format: functional; settings: read-out: Activity
NCI-H460 = assay: Growth inhibition of human NCI-H460 cells assessed as cell growth at 0.1 uM incubated for 48 hrs by sulforhodamine B assay relative to control; format: functional; settings: NCI-H460, 48 h, read-out: Activity
NCI-H522 [5] = assay: Growth inhibition of human NCI-H522 cells assessed as cell growth at 0.1 uM incubated for 48 hrs by sulforhodamine B assay relative to control; format: functional; settings: NCI-H522, 48 h, read-out: Activity
HCT-15 = assay: Growth inhibition of human HCT15 cells assessed as cell growth at 0.1 uM incubated for 48 hrs by sulforhodamine B assay relative to control; format: functional; settings: HCT-15, 48 h, read-out: Activity
HT-29 [6] = assay: Growth inhibition of human HT-29 cells assessed as cell growth at 0.1 uM incubated for 48 hrs by sulforhodamine B assay relative to control; format: functional; settings: HT-29, 48 h, read-out: Activity
KM12 = assay: Growth inhibition of human KM12 cells assessed as cell growth at 0.1 uM incubated for 48 hrs by sulforhodamine B assay relative to control; format: functional; settings: KM12, 48 h, read-out: Activity
SK-MEL-5 = assay: Growth inhibition of human SK-MEL-5 cells assessed as cell growth at 0.1 uM incubated for 48 hrs by sulforhodamine B assay relative to control; format: functional; settings: SK-MEL-5, 48 h, read-out: Activity
CCRF-CEM [7] = assay: Growth inhibition of human CCRF-CEM cells assessed as cell growth at 1 uM incubated for 48 hrs by sulforhodamine B assay relative to control; format: functional; settings: read-out: Activity
HL-60(TB) = assay: Growth inhibition of human HL-60(TB) cells assessed as cell growth at 1 uM incubated for 48 hrs by sulforhodamine B assay relative to control; format: functional; settings: HL-60, 48 h, read-out: Activity
MOLT-4 = assay: Growth inhibition of human MOLT4 cells assessed as cell growth at 1 uM incubated for 48 hrs by sulforhodamine B assay relative to control; format: functional; settings: MOLT-4, 48 h, read-out: Activity
HCC 2998 = assay: Growth inhibition of human HCC2998 cells assessed as cell growth at 1 uM incubated for 48 hrs by sulforhodamine B assay relative to control; format: functional; settings: HCC 2998, 48 h, read-out: Activity
A498 [8] = assay: Growth inhibition of human A498 cells assessed as cell growth at 1 uM incubated for 48 hrs by sulforhodamine B assay relative to control; format: functional; settings: A498, 48 h, read-out: Activity
SR = assay: Growth inhibition of human SR cells assessed as cell growth at 100 uM incubated for 48 hrs by sulforhodamine B assay relative to control; format: functional; settings: read-out: Activity
SNB-75 = assay: Growth inhibition of human SNB75 cells assessed as cell growth at 100 uM incubated for 48 hrs by sulforhodamine B assay relative to control; format: functional; settings: SNB-75, 48 h, read-out: Activity
UACC-62 = assay: Growth inhibition of human UACC62 cells assessed as cell growth at 100 uM incubated for 48 hrs by sulforhodamine B assay relative to control; format: functional; settings: UACC-62, 48 h, read-out: Activity
OVCAR-4 = assay: Growth inhibition of human OVCAR4 cells assessed as cell growth at 100 uM incubated for 48 hrs by sulforhodamine B assay relative to control; format: functional; settings: OVCAR-4, 48 h, read-out: Activity
OVCAR-8 = assay: Growth inhibition of human OVCAR8 cells assessed as cell growth at 100 uM incubated for 48 hrs by sulforhodamine B assay relative to control; format: functional; settings: OVCAR-8, 48 h, read-out: Activity
SK-OV-3 = assay: Growth inhibition of human SKOV3 cells assessed as cell growth at 100 uM incubated for 48 hrs by sulforhodamine B assay relative to control; format: functional; settings: SK-OV-3, 48 h, read-out: Activity
A498 [9] = assay: Growth inhibition of human A498 cells assessed as cell growth at 100 uM incubated for 48 hrs by sulforhodamine B assay relative to control; format: functional; settings: A498, 48 h, read-out: Activity
SN12C = assay: Growth inhibition of human SN12C cells assessed as cell growth at 100 uM incubated for 48 hrs by sulforhodamine B assay relative to control; format: functional; settings: read-out: Activity

O=C(Nc1cccc(-n2cc(-c3ccncc3)c(-c3cc(O)cc(Cl)c3)n2)c1)c1ccc(N2CCOCC2)c(C(F)(F)F)c1
growth at 10 µM (NCI-H522 [1]): 18.8% | growth at 10 µM (HT-29 [2]): 16.9% | growth at 10 µM (SK-MEL-2): 22.9% | GI50 (NCI-H226; read-out: GI50): 2.56 µM | LC50 (NCI-H226; read-out: LC50): > 100 µM | TGI (NCI-H226; read-out: TGI): > 100 µM | GI50 (NCI-H226; read-out: pGI50 (converted)): 28.8 µM | LC50 (NCI-H226; read-out: pLC50 (converted)): > 100 µM | TGI (NCI-H226; read-out: pTGI (converted)): > 100 µM | GI50 (SW-620; read-out: GI50): 2.53 µM | LC50 (SW-620; read-out: LC50): > 100 µM | TGI (SW-620; read-out: TGI): 70.6 µM | GI50 (SW-620; read-out: pGI50 (converted)): 2.82 µM | LC50 (SW-620; read-out: pLC50 (converted)): > 100 µM | TGI (SW-620; read-out: pTGI (converted)): 7.08 µM | growth at 0.01 µM (CCRF-CEM [3]): 98% | growth at 0.01 µM (SF-268): 101% | growth at 0.01 µM (SF-539): 94% | growth at 0.01 µM (UACC-257): 91% | growth at 0.01 µM (RXF 393): 91% | growth at 0.01 µM (PC-3): 93% | growth at 0.01 µM (MDA-MB-468): 92% | growth at 0.1 µM (CCRF-CEM [4]): 95% | growth at 0.1 µM (NCI-H460): 104% | growth at 0.1 µM (NCI-H522 [5]): 90% | growth at 0.1 µM (HCT-15): 94% | growth at 0.1 µM (HT-29 [6]): 95% | growth at 0.1 µM (KM12): 105% | growth at 0.1 µM (SK-MEL-5): 91% | growth at 1 µM (CCRF-CEM [7]): 34% | growth at 1 µM (HL-60(TB)): 44% | growth at 1 µM (MOLT-4): 54% | growth at 1 µM (HCC 2998): 70% | growth at 1 µM (A498 [8]): 98% | growth at 100 µM (SR): -25% | growth at 100 µM (SNB-75): 1% | growth at 100 µM (UACC-62): -31% | growth at 100 µM (OVCAR-4): 57% | growth at 100 µM (OVCAR-8): 17% | growth at 100 µM (SK-OV-3): 19% | growth at 100 µM (A498 [9]): -12% | growth at 100 µM (SN12C): 38%
